Assay results reported in patent publication US7935719B2, “N-substituted-azacyclylamines as histamine-3 antagonists” (Wyeth LLC, priority 2006, dated 2011).
Counter-ions that a name gives are not always drawn.

The compounds below were run against Histamine Receptor H3 (Homo sapiens, UniProt Q9Y5N1) (assay: Methyl histamine binding in human histamine H3 receptor cell line). Conditions: membranes of stably transfected HEK293T cells, radioligand 1 nM, Ki from IC50 by Cheng-Prusoff.
Design: expressed in transfected cells; host or cells: HEK293T
Procedure: Evaluation of Methyl Histamine Binding in Human Histamine H3 Receptor Cell Line
The affinity of test compounds for the histamine 3 (H3) receptor is evaluated in the following manner. […] Cells are scraped from the plate, transferred to centrifuge tubes, washed one time in PBS by centrifugation in a Sorvall RT7 Plus centrifuge (2000 rpm 10 minutes, 4° C.). The resulting pellets are stored at −80° C. until ready for use. Cells are re-suspended in buffer (50 mM Tris pH=7.5) and placed in a Dounce homogenizer, douncing ten times to homogenize cells. The homogenate is spun down by centrifugation (Sorvall RT7 Plus, 1800 rpm 10 minutes, 4° C.). The supernatant is placed in a Corex tube and spun down by centrifugation (Sorvall RC 5c Plus, 17,000 rpm 20 minutes, 4° C.). The pellet is resuspended in buffer (50 mM Tris, pH 7.5). Protein concentration (ug/ul) is determined using the Micro-BCA Protein Determination. The binding assay is set up in a 96 well microtiter plate in a total volume of 250 uL. Non-specific binding is determined in the presence of 10 uM clobenpropit. The final radioligand concentration is 1 nM. The test compound is serially diluted using the Beckman Biomek2000 to a final approximate range of 100 uM to 100 pM. Membranes are suspended in buffer, homogenized in 2 bursts of ten seconds using a Vitris mechanical homogenizer set at power setting 5. Ten μg of membranes are added to each well. Following a one hour incubation at 30° C., the reaction is terminated by the addition of ice cold buffer and rapid filtration with a Packard Filtermate Harvester through a GF/B filter pre-soaked with 1% PEI for one hour. The plate is dried for one hour at 37° C. and 60 μL Microscint Scintillant is added to each well. The CPM per well is measured on a Packard Top Count NXT. Ki values are determined in nM. […] CPM values are expressed as % specific binding and plotted vs compound concentration. A curve is fitted using a four-parameter logistic fit and the IC50 value is determined. The Ki is calculated from this using the Cheng-Prusoff equation: […]=IC50/1+(L/Kd) where L=concentration of free radioligand used in the assay, and Kd is the dissociation constant of the radioligand for the receptor. L is determined for each experiment by counting an aliquot of the diluted radioligand (corresponding to that added to each well) and the Kd has previously been determined under identical conditions for this cell line/radioligand.

Chain of Histamine Receptor H3 (Q9Y5N1 whole entry): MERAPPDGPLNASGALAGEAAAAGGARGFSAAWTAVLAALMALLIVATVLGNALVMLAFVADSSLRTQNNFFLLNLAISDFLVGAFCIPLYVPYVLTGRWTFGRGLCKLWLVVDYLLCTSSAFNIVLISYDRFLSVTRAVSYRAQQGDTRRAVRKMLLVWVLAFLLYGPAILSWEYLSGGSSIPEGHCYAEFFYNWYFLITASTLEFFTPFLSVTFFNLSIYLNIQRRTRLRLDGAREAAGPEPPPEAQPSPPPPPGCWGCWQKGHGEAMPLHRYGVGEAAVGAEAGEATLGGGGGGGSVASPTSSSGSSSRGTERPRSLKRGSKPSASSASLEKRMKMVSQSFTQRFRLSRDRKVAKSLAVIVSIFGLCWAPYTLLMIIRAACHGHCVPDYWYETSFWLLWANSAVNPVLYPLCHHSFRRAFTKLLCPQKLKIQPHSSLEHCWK

Compound | Ki [nM]
C[C@@H]1CCCN1[C@H]1CCN(C(=O)c2ccc(-n3cnc4ccccc43)cc2)C1 [Example 6, (2R,3′S)-1′-[4-(1H-benzimidazol-1-yl)benzoyl]-2-methyl-1,3′-bipyrrolidine] | 10.1 to 25
CC1CCCN([C@H]2CCN(C(=O)c3ccc(-n4cnc5ccccc54)cc3)C2)C1 (stereo partly drawn) [Example 8, 1-(4-{[(3S)-3-(3-methylpiperidin-1-yl)pyrrolidin-1-yl]carbonyl}phenyl)-1H-benzimidazole] | < 10
CC1CCN([C@H]2CCN(C(=O)c3ccc(-n4cnc5ccccc54)cc3)C2)CC1 [Example 9, 1-(4-{[(3S)-3-(4-methylpiperidin-1-yl)pyrrolidin-1-yl]carbonyl}phenyl)-1H-benzimidazole] | > 100
CN1CCN([C@H]2CCN(C(=O)c3ccc(-n4cnc5ccccc54)cc3)C2)CC1 [Example 10, 1-(4-{[(3S)-3-(4-methylpiperazin-1-yl)pyrrolidin-1-yl]carbonyl}phenyl)-1H-benzimidazole] | > 100
CC1CCCCN1[C@H]1CCN(C(=O)c2ccc(-n3cnc4ccccc43)cc2)C1 (stereo partly drawn) [Example 12, 1-(4-{[(3S)-3-(2-methylpiperidin-1-yl)pyrrolidin-1-yl]carbonyl}phenyl)-1H-benzimidazole] | 25.1 to 50
O=C(c1ccc(-n2cnc3ccccc32)cc1)N1CC[C@H](N2CCCCC2)C1 [Example 13, 1-(4-{[(3S)-3-piperidin-1-ylpyrrolidin-1-yl]carbonyl}phenyl)-1H-benzimidazole] | < 10
c1ccc2c(c1)ncn2-c1ccc(CN2CC[C@H](N3CCCC3)C2)cc1 [Example 14, (3′S)-1′-[4-(1H-benzimidazol-1-yl)benzyl]-1,3′-bipyrrolidine hydrochloride] | < 10
c1ccc2c(c1)ncn2-c1ccc(CN2CC[C@H](N3CCCCC3)C2)cc1 [Example 15, (1-(4-{[(3S)-3-piperidin-1-ylpyrrolidin-1-yl]methyl}phenyl)-1H-benzimidazolefumaric acid salt] | < 10
Cc1nc2ccccc2n1-c1ccc(CN2CC[C@H](N3CCCC3)C2)cc1 [Example 17, (3′S)-1′-[4-(2-methyl-1H-benzimidazol-1-yl)benzyl]-1,3′-bipyrrolidine] | < 10
Cc1nc2ccccc2n1-c1ccc(CN2CC[C@H](N3CCCCCC3)C2)cc1 [Example 18, 1-(4-{[(3S)-3-azepan-1-ylpyrrolidin-1-yl]methyl}phenyl)-2-methyl-1H-benzimidazole] | < 10
Cc1nc2ccccc2n1-c1ccc(C(=O)N2CC[C@H](N3CCCCCC3)C2)cc1 [Example 20, 1-(4-{[(3S)-3-azepan-1-ylpyrrolidin-1-yl]carbonyl}phenyl)-2-methyl-1H-benzimidazole fumaric acid salt] | < 10
Cc1nc2ccccc2n1-c1ccc(C(=O)N2CC[C@H](N3CCCCC3C)C2)cc1 (stereo partly drawn) [Example 23, 2-methyl-1-(4-{[(3S)-3-(2-methylpiperidin-1-yl)pyrrolidin-1-yl]carbonyl}phenyl)-1H-benzimidazole] | < 10
Cc1nc2ccccc2n1-c1ccc(C(=O)N2CC[C@H](N3CCC(C)CC3)C2)cc1 [Example 25, 2-methyl-1-(4-{[(3S)-3-(4-methylpiperidin-1-yl)pyrrolidin-1-yl]carbonyl}phenyl)-1H-benzimidazole] | 25.1 to 50
Cc1nc2ccccc2n1-c1ccc(C(=O)N2CC[C@H](N3CCN(C)CC3)C2)cc1 [Example 26, 2-methyl-1-(4-{[(3S)-3-(4-methylpiperazin-1-yl)pyrrolidin-1-yl]carbonyl}phenyl)-1H-benzimidazole] | > 100
O=C(c1ccc(-n2ccc3ccccc32)cc1)N1CC[C@H](N2CCCC2)C1 [Example 30, (3′S)-1′-[4-(1H-indol-1-yl)benzoyl]-1,3′-bipyrrolidine hydrochloride] | < 10
O=C(c1ccc(-n2ccc3c(Cl)cccc32)cc1)N1CC[C@H](N2CCCC2)C1 [Example 32, (3′S)-1′-[4-(4-chloro-1H-indol-1-yl)benzoyl]-1,3′-bipyrrolidine] | < 10
O=C(c1ccc(-n2ccc3cccc(Cl)c32)cc1)N1CC[C@H](N2CCCC2)C1 [Example 34, (3′S)-1′-[4-(7-chloro-1H-indol-1-yl)benzoyl]-1,3′-bipyrrolidine] | < 10
O=C(c1ccc(-n2ccc3cc(Br)ccc32)cc1)N1CC[C@H](N2CCCC2)C1 [Example 35, (3′S)-1′-[4-(5-bromo-1H-indol-1-yl)benzoyl]-1,3′-bipyrrolidine] | < 10

Second part, the compound after the results:

Ki [nM] | Compound
< 10 | Cc1cc2ccccc2n1-c1ccc(C(=O)N2CC[C@H](N3CCCC3)C2)cc1 [Example 38, (3′S)-1′-[4-(2-methyl-1H-indol-1-yl)benzoyl]-1,3′-bipyrrolidine]
< 10 | O=C(c1ccc(-n2ncc3cc(F)ccc32)cc1)N1CC[C@H](N2CCCC2)C1 [Example 40, (3′S)-1′-[4-(5-fluoro-1H-indazol-1-yl)benzoyl]-1,3′-bipyrrolidine]
10.1 to 25 | O=C(c1ccc(-n2ncc3ccc(F)cc32)cc1)N1CC[C@H](N2CCCC2)C1 [Example 41, (3′S)-1′-[4-(6-fluoro-1H-indazol-1-yl)benzoyl]-1,3′-bipyrrolidine]
< 10 | N#Cc1ccc2c(cnn2-c2ccc(C(=O)N3CC[C@H](N4CCCC4)C3)cc2)c1 [Example 42, 1-{4-[(3′S)-1,3′-bipyrrolidin-1′-ylcarbonyl]phenyl}-1H-indazole-5-carbonitrile]
< 10 | N#Cc1ccc2nn(-c3ccc(C(=O)N4CC[C@H](N5CCCC5)C4)cc3)cc2c1 [Example 43, 2-{4-[(3′S)-1,3′-bipyrrolidin-1′-ylcarbonyl]phenyl}-2H-indazole-5-carbonitrile]
< 10 | O=C(c1ccc(-n2cc3ccc(F)cc3n2)cc1)N1CC[C@H](N2CCCC2)C1 [Example 44, (3′S)-1′-[4-(6-fluoro-2H-indazol-2-yl)benzoyl]-1,3′-bipyrrolidine]
< 10 | O=C(c1ccc(-n2cc3cc(F)ccc3n2)cc1)N1CC[C@H](N2CCCC2)C1 [Example 45, (3′S)-1′-[4-(5-fluoro-2H-indazol-2-yl)benzoyl]-1,3′-bipyrrolidine]
< 10 | N#Cc1ccc2c(ccn2-c2ccc(C(=O)N3CC[C@@H](N4CCCC4)C3)cc2)c1 [Example 46, 1-{4-[(3′R)-1,3′-bipyrrolidin-1′-ylcarbonyl]phenyl}-1H-indole-5-carbonitrile]
25.1 to 50 | N#Cc1ccc2c(c1)ncn2-c1ccc(C(=O)N2CC[C@H](N3CCCC3)C2)cc1 [Example 48, 1-{4-[(3′S)-1,3′-bipyrrolidin-1′-ylcarbonyl]phenyl}-1H-benzimidazole-5-carbonitrile fumarate]
